Among the data in PMC4462585, “Synthesis and Biological Evaluation of 3-Alkyl-1,5-Diaryl-1H-Pyrazoles as Rigid Analogues of Combretastatin A-4 with Potent Antiproliferative Activity” (PLoS ONE, 2015) are IC50 and melting point values, retold here.

Series [1] concerns fibrosarcoma cell line HT-1080. Nature of the series: MTT antiproliferative assay, HT-1080. To be noted: Homo sapiens, 72 h drug exposure, triplicate, read-out: Antiproliferative activity (IC50 ± SD) HT-1080. The format is cell-based. An excerpt:
(§1) Pulmonary adenocarcinoma cell lines (A549) and gastric adenocarcinoma cell lines (SGC-7901) were provided as gifts (purchased from the Cell Resource Center of Shanghai Institutes for Biological Sciences) from the China-Japan Research Institute of Medical and Pharmaceutical Sciences, Shenyang Pharmaceutical University. Fibrosarcoma cell lines (HT-1080) were purchased from the Cell Resource Center of Shanghai Institutes for Biological Sciences. All cells were maintained in DMEM containing 1% antibiotics (100 units of penicillin and […] per mL in 0.9% normal saline) and 10% foetal bovine serum in a humidified atmosphere containing 5% CO2 at 37°C.
(§2) Antiproliferative activities of CA-4 and the target compounds were measured using a colourimetric assay using 3-(4,5-dimethylthiazol-2yl-)-2,5-diphenyltetrazolium bromide (MTT). Approximately 3 × 10^4 cells were seeded in a 96-well plate. After 24 h of incubation at 37°C, cells were exposed to compounds of differing concentrations (0.0008 μg/mL, 0.004 μg/mL, 0.02 μg/mL, 0.10 μg/mL, 0.50 μg/mL, 2.5 μg/mL, 12.5 μg/mL, 62.5 μg/mL) for 72 h. After treatment, cells were washed with 1X PBS followed by addition of 100 μL of 0.05% MTT reagent to each well, followed by incubation for 4 h at 37°C. After incubation, the supernatant from each well was carefully removed and the formazan crystals were dissolved in 100 μL of DMSO. The colour density was measured spectrophotometrically at 490 nm using a microplate reader (SpectraMax Plus384, Molecular Devices Corp., USA). The percentage of cell growth inhibition was calculated as follow: inhibition ratio % = (Acontrol—Atreated) / Acontrol × 100%. The 50% inhibitory concentration (IC50) was defined as the concentration that reduced the absorbance of the untreated wells by 50% of the vehicle in the MTT assay.
In general terms: Formazan colour is commonly taken as a measure of viable cells.

Series [2] deals with gastric adenocarcinoma cell line SGC-7901. As to the kind of experiment: MTT antiproliferative assay, SGC-7901. Type of series: cell-based. To be noted: Homo sapiens, 72 h drug exposure, triplicate, read-out: Antiproliferative activity (IC50 ± SD) SGC-7901.
From the text: as §1, §2

The test system of series [3] is pulmonary adenocarcinoma cell line A549. As to the kind of experiment: MTT antiproliferative assay, A549. Type of series: cell-based. To be noted: Homo sapiens, 72 h drug exposure, triplicate, read-out: Antiproliferative activity (IC50 ± SD) A549.
From the text: as §1, §2

In a further series the test system is purified bovine tubulin. As to the kind of experiment: Tubulin assembly (polymerization) assay, cell-free, fluorescence-based. To be noted: 37°C, IC50 calculated at 80 min, three experiments, read-out: Inhibition of tubulin polymerization IC50. The format is biochemical. As to the method: Fig 5 Dose-response effects of CA-4 (1), 7i and 7k on the inhibition of tubulin polymerization. Purified bovine tubulin and GTP were mixed in a 96-well plate. The reaction was initiated by warming the solution from 4°C to 37°C. DMSO was used as a vehicle control. The effect on the assembly of tubulin was monitored using a plate reader at 1 min intervals for 90 min at 37°C.
The effect of compounds 7i and 7k on the polymerization of purified brain tubulin was determined employing a fluorescence-based tubulin polymerization assay kit (Cat. #BK011P, Cytoskeleton, Inc., USA) according to the manufacturer’s protocol. Tubulin was re-suspended in ice-cold G-PEM buffer (80 mM PIPES, 2 mM MgCl2, 0.5 mM EGTA, 1 mM GTP, 20% (v/v) glycerol) and added to wells on a 96-well plate containing the designated concentration of drugs or vehicle. Samples were mixed well, and tubulin assembly was monitored (emission wavelength: 450 nm; excitation wavelength: 360 nm) at 1 min intervals for 90 min at 37°C using a plate reader ([…]). IC50 values were calculated at 80 min using SPSS software in three experiments.

By IC50 is commonly meant the point on the concentration scale where inhibition reaches its midpoint. For orientation: melting point means the temperature of the solid-liquid transition. For the compound `COc1ccc(-c2cc(C)nn2-c2cc(OC)c(OC)c(OC)c2)cc1O` [Compound 7i, 3-Methyl-5-(3-hydroxy-4-methoxyphenyl)-1-(3,4,5-trimethoxyphenyl)-1H-pyrazole], the melting point was in the range of 130 to 131 °C. Moreover, the IC50 in series [1] was found to be 0.93 ± 0.13 µM. Further, the IC50 in series [2] amounted to 0.275 ± 0.02 µM. For the same compound, the IC50 in series [3] came to 1.12 ± 0.12 µM. Moreover, the IC50 in the series on purified bovine tubulin is 2.5 µM.
For the compound `COc1ccc(-c2c(Br)c(C)nn2-c2cc(OC)c(OC)c(OC)c2)cc1[N+](=O)[O-]` [Compound 7n, 4-Bromo-3-methyl-5-(4-methoxy-3-nitrophenyl)-1-(3,4,5-trimethoxyphenyl)-1H-pyrazole], the melting point is 182 to 183 °C. Further, the IC50 in series [1] is over 100 µM. The IC50 in series [2] is over 100 µM. Further, in series [3], the half-inhibitory concentration (IC50) is over 100 µM.
Consider `COc1ccc(-c2c(Br)c(C)nn2-c2cc(OC)c(OC)c(OC)c2)cc1N` [Compound 7o, 4-Bromo-3-methyl-5-(3-amino-4-methoxyphenyl)-1-(3,4,5-trimethoxyphenyl)-1H-pyrazole], for which the melting point fell in the range of 128 to 129 °C. In addition, in series [1], the IC50 was 15.9 ± 3.2 µM. Also, the IC50 in series [2] is 14.3 ± 3.1 µM. Besides, in series [3], the IC50 was found to be 79.1 ± 2 µM.
On to `CCc1cc(-c2ccc(OC)c([N+](=O)[O-])c2)n(-c2cc(OC)c(OC)c(OC)c2)n1` [Compound 7p, 3-Ethyl-5-(4-methoxy-3-nitrophenyl)-1-(3,4,5-trimethoxyphenyl)-1H-pyrazole], for which the melting point fell in the range of 151 to 152 °C. In series [1], the IC50 is over 100 µM. For the same compound, the IC50 in series [2] was over 100 µM. For the same compound, the IC50 in series [3] is over 100 µM.
On to `CCCc1cc(-c2ccc(OC)c([N+](=O)[O-])c2)n(-c2cc(OC)c(OC)c(OC)c2)n1` [Compound 7q, 3-Propyl-5-(4-methoxy-3-nitrophenyl)-1-(3,4,5-trimethoxyphenyl)-1H-pyrazole], for which the melting point was 149 to 150 °C. Also, in series [1], the IC50 is over 100 µM. In addition, in series [2], the IC50 is over 100 µM. In addition, the IC50 in series [3] is over 100 µM.
With `CCc1cc(-c2ccc(OC)c(N)c2)n(-c2cc(OC)c(OC)c(OC)c2)n1` [Compound 7r, 3-Ethyl-5-(3-amino-4-methoxyphenyl)-1-(3,4,5-trimethoxyphenyl)-1H-pyrazole], the melting point fell in the range of 114 to 115 °C. Also, the IC50 in series [1] came to 8.16 ± 0.12 µM. For the same compound, the 50% inhibitory concentration (IC50) in series [2] came to 4.62 ± 0.09 µM. Besides, in series [3], the IC50 came out at 3.55 ± 0.09 µM.
On to `CCCc1cc(-c2ccc(OC)c(N)c2)n(-c2cc(OC)c(OC)c(OC)c2)n1` [Compound 7s, 3-Propyl-5-(3-amino-4-methoxyphenyl)-1-(3,4,5-trimethoxyphenyl)-1H-pyrazole], for which the melting point fell in the range of 125 to 126 °C. In addition, in series [1], the half-inhibitory concentration (IC50) was found to be 23.2 ± 0.11 µM. In addition, the concentration for half-maximal inhibition (IC50) in series [2] was 35.7 ± 0.08 µM. For the same compound, the IC50 in series [3] turned out to be 56.6 ± 1 µM.
On to `COc1cc(-c2cc(C)nn2-c2ccccc2)cc(OC)c1OC` [Compound 8a, 3-Methyl-1-phenyl-5-(3,4,5-trimethoxyphenyl)-1H-pyrazole], for which the melting point is 88 to 89 °C. In addition, in series [1], the IC50 is over 100 µM. Moreover, the IC50 in series [2] is over 100 µM. Further, the IC50 in series [3] is over 100 µM.
For `COc1ccc(-n2nc(C)cc2-c2cc(OC)c(OC)c(OC)c2)cc1` [Compound 8b, 3-Methyl-1-(4-methoxyphenyl)-5-(3,4,5-trimethoxy-phenyl)-1H-pyrazole], the melting point was in the range of 67 to 68 °C. For the same compound, in series [1], the concentration for half-maximal inhibition (IC50) was 28.2 ± 1.9 µM. Also, the IC50 in series [2] worked out at 19 ± 2 µM. Further, in series [3], the IC50 is 9.39 ± 0.21 µM.
On to `COc1cc(-c2cc(C)nn2-c2ccc(C)cc2)cc(OC)c1OC` [Compound 8c, 3-Methyl-1-(4-methylphenyl)-5-(3,4,5-trimethoxy-phenyl)-1H-pyrazole], for which the melting point is 70 to 71 °C. For the same compound, in series [1], the half-maximal inhibitory concentration (IC50) came to 15.6 ± 1.5 µM. Further, the IC50 in series [2] amounted to 11.8 ± 1.2 µM. In series [3], the IC50 was 16.2 ± 1 µM.
`COc1cc(-c2cc(C)nn2-c2cc([N+](=O)[O-])ccc2C)cc(OC)c1OC` [Compound 8d, 3-Methyl-1-(2-methyl-5-nitrophenyl)-5-(3,4,5-trimethoxyphenyl)-1H-pyrazole] gave a melting point of 102 to 103 °C. Also, the IC50 in series [1] is over 100 µM. Besides, the IC50 in series [2] stood at 31.1 ± 2.5 µM. In addition, in series [3], the IC50 was 48.6 ± 1.1 µM.
Compound `COc1cc(-c2cc(C)nn2-c2cc(N)ccc2C)cc(OC)c1OC` [Compound 8e, 3-Methyl-1-(5-amino-2-methylphenyl)-5-(3,4,5-trimethoxyphenyl)-1H-pyrazole] yielded a melting point of 69 to 70 °C. Besides, the half-inhibitory concentration (IC50) in series [1] came to 11.9 ± 1.9 µM. Besides, in series [2], the IC50 came out at 2.43 ± 0.09 µM. Also, the IC50 in series [3] came out at 28.2 ± 1.7 µM.
`COc1ccc(-n2nc(C)cc2-c2cc(OC)c(OC)c(OC)c2)cc1[N+](=O)[O-]` [Compound 8f, 3-Methyl-1-(4-methoxy-3-nitrophenyl)-5-(3,4,5-trimethoxyphenyl)-1H-pyrazole] displayed a melting point of 118 to 119 °C. In addition, in series [1], the IC50 was over 100 µM. For the same compound, in series [2], the half-maximal inhibitory concentration (IC50) was over 100 µM. Moreover, in series [3], the IC50 is over 100 µM.
The compound `COc1ccc(-n2nc(C)cc2-c2cc(OC)c(OC)c(OC)c2)cc1N` [Compound 8g, 3-Methyl-1-(3-amino-4-methoxyphenyl)-5-(3,4,5-trimethoxyphenyl)-1H-pyrazole] gave a melting point of 56 to 57 °C. Besides, the concentration for half-maximal inhibition (IC50) in series [1] amounted to 24.7 ± 2.3 µM. Moreover, the IC50 in series [2] amounted to 21.2 ± 1.6 µM. Moreover, the half-inhibitory concentration (IC50) in series [3] is 21.4 ± 1.2 µM.
With `C=CCOc1cc(-n2nc(C)cc2-c2cc(OC)c(OC)c(OC)c2)ccc1OC` [Compound 8h, 3-Methyl-1-(3-allyloxy-4-methoxyphenyl)-5-(3,4,5-trimethoxyphenyl)-1H-pyrazole], the melting point fell in the range of 98 to 99 °C. Moreover, the IC50 in series [1] was over 100 µM. For the same compound, in series [2], the IC50 was over 100 µM. In addition, the IC50 in series [3] was over 100 µM.
Compound `COc1ccc(-n2nc(C)cc2-c2cc(OC)c(OC)c(OC)c2)cc1O` [Compound 8i, 3-Methyl-1-(3-hydroxy-4-methoxyphenyl)-5-(3,4,5-trimethoxyphenyl)-1H-pyrazole] came in with a melting point of 167 to 168 °C. Further, the IC50 in series [1] turned out to be 15 ± 0.9 µM. Moreover, the IC50 in series [2] came to 13.7 ± 1.2 µM. Moreover, the IC50 in series [3] is 21.8 ± 2.1 µM.
